Experiments:
adult ADHD subjects = settings: i.v., Ernst et al. 1998; cited from earlier work
[1] = test system: regional brain metabolism; settings: cited from earlier work; for effect of chronic treatment on regional brain metabolism (PET): adult ADHD patients, Matochik et al. 1994
[2] = test system: putamen of children with ADHD; assay: T2 relaxometry of the putamen, blinded placebo-controlled daily treatment; format: in vivo, human; settings: p=0.006
Text: (§1) With this particular arrangement, an apparatus for indirectly assessing blood volume in the striatum (caudate and putamen and cerebellum) under steady-state conditions and for non-invasively diagnosing ADHD is provided. […] In one study eleven boys with ADHD had higher T2 relaxation times than six non-ADHD boys. The probability of this occurring by chance is 0.8%. The relaxation times correlated with the child's capacity to sit still, and their accuracy in performing a computerized attention task. Product-moment correlation coefficients (denoted r) for each of the above activities as well as with a probability of finding this occurrence by chance (denoted p) were computed using conventional techniques. […] It was discovered that ADHD symptoms may be closely tied to functional abnormalities in the putamen and cerebellum which are predominantly involved in the regulation and coordination of motoric behavior. […]
(§2) Turning now to FIG. 2, processing begins in steps 40 and 42 in which after positioning subjects to be tested (e.g. children or other persons possibly having brain dysfunction) in a scanning region of an MRI system of the type described above in conjunction with FIG. 1, and instructing the subjects to remain as still as possible, images of particular regions of interest (ROI) are acquired by perturbing the magnetic field in the subject and taking readings at particular times. […]

[3] = test system: putamen of children with ADHD; settings: stated as known; cited from earlier work
[4] = test system: cerebellum of the most hyperactive ADHD boys; assay: T2 relaxometry of the cerebellum, blinded placebo-controlled daily treatment (summary study); format: in vivo, human; settings: eight of the most hyperactive boys; F3,21=5.011, p=0.0089
Text: With this particular arrangement, an apparatus for indirectly assessing blood volume in the striatum (caudate and putamen and cerebellum) under steady-state conditions and for non-invasively diagnosing ADHD is provided. […] In one study eleven boys with ADHD had higher T2 relaxation times than six non-ADHD boys. The probability of this occurring by chance is 0.8%. The relaxation times correlated with the child's capacity to sit still, and their accuracy in performing a computerized attention task. Product-moment correlation coefficients (denoted r) for each of the above activities as well as with a probability of finding this occurrence by chance (denoted p) were computed using conventional techniques. […] It was discovered that ADHD symptoms may be closely tied to functional abnormalities in the putamen and cerebellum which are predominantly involved in the regulation and coordination of motoric behavior. […] It should also be appreciated that the apparatus and technique of the present invention may be equally applied to other brain regions (or even other organs) and may be useful for diagnosing conditions other than ADHD.
Referring now to FIG. 5, a T2 relaxation time image of the brain and cerebellum is shown. Circumscribed ROIs are illustrated for the cerebellar vermis V as well as, right R and left L cerebellar hemispheres. […]

[5] = test system: cerebellar hemispheres of boys with ADHD; assay: T2 relaxometry (fMRI) of the cerebellar hemispheres after one week of daily treatment; format: in vivo, human; settings: Dose F=0.88, p>0.4; Dose x Activity F=0.47, p>0.7
Procedure: (§3) In one particular embodiment, T2 relaxometry was used to indirectly assess blood volume in the cerebellum (hemispheres and midline vermis) of ten ADHD boys treated continuously for one week with placebo and three different doses of MPH. […] Following each week of treatment, and within 1-3 hours of their afternoon dose, testing for drug efficacy was performed using objective measures of activity.
Ten boys with ADHD (9.3±1.6 yr), and six healthy comparison subject boys (10.2±1.5 yr) were studied. Children with ADHD were screened using structured diagnostic interview (the Schedule for Affective Disorders and Schizophrenia for School-Age Children—Epidemiologic Version, “K-SADS-E”) and included if they met criteria for ADHD, and had at least 6 of 9 symptoms of inattention or hyperactivity-impulsivity. […]
On test days, parents were instructed to give the afternoon dose 1 hour prior to their MRI appointment. Medication administration was assessed at each visit to insure that time between ingestion and testing were held constant for each subject throughout the study. […]
Values of T2 (x, y) and S (TE=0, x, y) were then calculated on a pixel-wise basis, assuming exponential decay, i.e. 1n [S (x, y, n)]=1n [S (TE=0), x, y]−TE (n)/T2 (x, y) where (x, y) describe the location of the pixel; n characterizes the echo number, from 1 to 32; and S is the image signal intensity. […]

[6] = test system: cerebellar vermis of boys with ADHD; assay: T2 relaxometry (fMRI) of the cerebellar vermis after one week of daily treatment; format: in vivo, human; settings: for decrease in vermal T2-RT relative to placebo (average): three least active boys with ADHD
Procedure: as §3
Ten boys with ADHD (9.3±1.6 yr), and six healthy comparison subject boys (10.2±1.5 yr) were studied. Children with ADHD were screened using structured diagnostic interview (the Schedule for Affective Disorders and Schizophrenia for School-Age Children—Epidemiologic Version, “K-SADS-E”) and included if they met criteria for ADHD, and had at least 6 of 9 symptoms of inattention or hyperactivity-impulsivity. Children then took part in a triple blind (parent, child, rater), randomized, placebo-controlled study on the effects of methylphenidate (0, 0.5, 0.8, 1.5 mg/kg/day in two divided doses) on activity and fMRI. Children were treated continuously for one week with placebo or specific dose of methylphenidate. They were tested on day seven for drug response using objective measures of activity immediately following fMRI.
On test days, parents were instructed to give the afternoon dose 1 hour prior to their MRI appointment. Medication administration was assessed at each visit to insure that time between ingestion and testing were held constant for each subject throughout the study.
During each examination, 3 categories of images were obtained: (1) Scout images (typically T1-weighted sagittal images); (2) High resolution T1 matched axial images through the ten planes for which maps of T2 were generated; and (3) 32 spin echo, echoplanar image sets, with TE incremented by 4 msec in each consecutive image set (e.g. TE (1)=32 msec, TE (2)=36 msec, . . . TE (32)=156 msec) through the same ten axial planes ([…], Slice thickness=7 mm with a 3 mm skip, in-plane resolution=3.125 mm×3.125 mm, FOV=200 mm). The 32 TE-stepped images were then transferred to an off-line workstation and corrected for in plane motion using a modification of the DART image registration algorithm.
Values of T2 (x, y) and S (TE=0, x, y) were then calculated on a pixel-wise basis, assuming exponential decay, i.e. 1n [S (x, y, n)]=1n [S (TE=0), x, y]−TE (n)/T2 (x, y) where (x, y) describe the location of the pixel; n characterizes the echo number, from 1 to 32; and S is the image signal intensity. Linear least-squares regression was used to calculate a single T2 relaxation time measure for each pixel (x, y). Calculations of regional T2 relaxation time were made for regions of interest (ROI) drawn manually under the guidance of conventional T1-wighted matched MRI images in 2 to 4 slices through the cerebellum using anatomic boundaries observed in T1-weighted, preliminary T2-RT maps, and an atlas of the cerebellum. ROI slice selections were based on an assessment of the presence of cerebral spinal fluid in order to minimize partial volume artifacts, which result in abnormally elevated T2 relaxation times (values>100 msec were rejected). Sixteen voxel ROI's in the vermis were conservatively limited to square regions ([…]), to avoid encroaching into ventricular space and to provide consistency between slices and subjects.
FIGS. 7A and 7B show representative cerebellar ROIs including the vermis V and the left and right cerebella C. Delineation of regions and analysis of imaging data were performed on coded images, by an analyst very familiar with cerebellar anatomy who was blind to the identity, diagnosis, and treatment condition of the subject.

[7] = test system: caudate or thalamus of children with ADHD; assay: T2 relaxometry of caudate and thalamus, blinded placebo-controlled daily treatment; format: in vivo, human
Text: as §1, §2

Q: What does the source list for C[C@H](N)Cc1ccccc1 [dextroamphetamine]?
A: effect on attention (adult ADHD subjects): robust effects on attention; effect of chronic treatment on regional brain metabolism (PET) [1]: no consistent effect; effect on global or regional metabolic rates ([1]; i.v., adult ADHD subjects, Ernst et al. 1998): no consistent effect

Q: For COC(=O)C(c1ccccc1)C1CCCCN1 (stereo not drawn) [methylphenidate], which “effect on relaxation times in the putamen” value [2] is on record?
A: Its value is “significantly altered”.

Q: And the “effect of daily high-dose treatment on T2-RT in the putamen” value [3]?
A: Its value is “changed T2-RT in the putamen”.

Q: And the “effect on relaxation times in the cerebellum” value [4]?
A: The value was “dose-dependently altered”.

Q: What about the “effect of treatment on T2-RT in the adjacent cerebellar hemispheres” value [5] of the same molecule?
A: The value was “No effect”.

Q: What about the “increase in vermal T2-RT relative to placebo” value ([6]; high dose (1.5 mg/kg/day, one week), seven hyperactive ADHD boys) of the same molecule?
A: Its value is 5.1%.

Q: What about the “decrease in vermal T2-RT relative to placebo (average)” value ([6]; high dose (1.5 mg/kg/day, one week)) of the same molecule?
A: Its value is 3.9%.

Q: What about the “group effect (hyperactive vs non-hyperactive boys) on percent change in vermis T2-RT” value ([6]; high dose, F=15.98, df=1, 8, p=0.004) of the same molecule?
A: Its value is “significant group effect”.

Q: And the “effect size (Cohen d) of the medication-induced change in T2-RT” value ([6]; highest dose, hyperactive subjects, 95% CI in brackets)?
A: The value was 2.13 (95% CI, 0.82-3.44).

Q: What about the “effect of moderate and high doses on T2-RT (direction by basal activity)” value ([6]; increase in the most active ADHD children, reduction in those not objectively hyperactive) of the same molecule?
A: The value was “increased T2-RT in a rate-dependent manner”.

Q: What about the “increase in vermal T2-RT relative to placebo” value ([6]; intermediate dose (0.8 mg/kg/day, one week), seven hyperactive ADHD boys) of the same molecule?
A: The value was 2.1%.

Q: What about the “decrease in vermal T2-RT relative to placebo (average)” value ([6]; intermediate dose (0.8 mg/kg/day, one week)) of the same molecule?
A: Its value is 3.5%.

Q: And the “group effect (hyperactive vs non-hyperactive boys) on percent change in vermis T2-RT” value ([6]; intermediate dose, F=6.75, df=1, 8, p=0.04)?
A: The value was “significant group effect”.

Q: What about the “increase in vermal T2-RT relative to placebo” value ([6]; low dose (0.5 mg/kg/day, one week), seven boys at least 20% more active than the most active comparison subject) of the same molecule?
A: Its value is 1.2%.

Q: What about the “decrease in vermal T2-RT relative to placebo (average)” value ([6]; low dose (0.5 mg/kg/day, one week)) of the same molecule?
A: Its value is 1.3%.

Q: What about the “group effect (hyperactive vs non-hyperactive boys) on percent change in vermis T2-RT” value ([6]; low dose, F=0.63, df=1, 8, p=0.63) of the same molecule?
A: The value was “non-significant group effect”.

Q: And the “effect of dose on cerebellar or vermal T2-RT, repeated-measures ANOVA without covariate” value ([6]; ten ADHD boys, F=1.167, df=3, 27, p=0.34)?
A: The value was “failed to reveal any significant effect of dose”.

Q: And the “effect of treatment on vermal T2-RT, analysis of covariance with motor activity” value ([6]; ten ADHD boys, F=4.85, df=3, 24, p=0.009, effect of dose linear)?
A: The value was “robust effect”.

Q: And the “change of relaxation times in caudate or thalamus” value [7]?
A: The value was “nor did relaxation times in these regions change”.

Q: What about the “effect of chronic treatment on regional brain metabolism (PET)” value [1] of the same molecule?
A: Its value is “no consistent effect”.

Q: And the “effect on frontotemporal metabolism” value ([1]; subjects with high availability of DA D2 receptors, Volkow et al. 1997)?
A: Its value is “increased frontotemporal metabolism”.

Q: And the effect on metabolism ([1]; subjects with low availability of D2 receptors, Volkow et al. 1997)?
A: Its effect on metabolism is “decreased metabolism”.
